Data reported in patent US5661138A, “(o-Acyl-p-N-acylamino-phenyl)-O-phosphoethanolamines” (Clarion Pharmaceutical, Inc., priority 1996, dated 1997).

Experiments:
[1] = system: carrageenan-induced paw edema in the rat; assay: In Vivo Assay--Rat Carrageenan-Induced Paw Edema; set-up: species or system rat (male Sprague-Dawley); conditions: intraperitoneal, 6 hours; FIG. 3
Description: The model, which provides a tool for investigating the effect of compounds on paw intimation, is described in the following reference: Bartlett, R. R., et al. (1993), "Effects of leflunomide on immune responses and models of inflammation," Springer Semin Immunopathol 14:381-394. It essentially consists of the following:
1. Rats: Male Sprague-Dawley, approximately 165 g obtainable from Harlan Sprague Dawley, Indianapolis, Ind., USA;
a. Measure the volume of the left hind paw by strain gauge/fluid immersion;
b. Inject 100 μL of 1% carrageenan in saline intradermally into the left hind foot pad;
c. Inject vehicles or test compounds dissolved in either saline (CPR-2015) or 50% saline and 50% ethanol (indomethacin, dexamethasone, and CPR-2014) intraperitoneally, placing 3-5 rats in each treatment group;
d. Six hours later, measure the volume of the left hind paw by strain gauge/fluid immersion;
e. Calculate average percent increase in paw volume for each treatment group.

[2] = system: PMA-induced inflammation in mouse ears; assay: In Vivo Assay--Mouse Ear model, PMA-induced inflammation; set-up: species or system mouse (male CD-1); conditions: concentration tested 5%, topical to ear, 6 hours; FIG. 1
Method: A common in vivo model for the evaluation of anti-inflammatory agents is PMA-induced inflammation in mouse ears. This method is described in "Pharmacological Methods in the Control of Inflammation," Joseph Y. Chang and Alan J. Lewis (eds), Alan R. Liss, Inc., New York, pp 221-223 (1989). In this assay, edema, which is a characteristic of inflammation, is quantified by determining ear thickness or ear weight approximately 6 hours after applying PMA to the ear.
1. Mice: Male CD-1, 21-24 g (Product Number 3002) obtainable from Harlan Sprague Dawley, Indianapolis, Ind., USA.
a. Prepare 0.01% (w/v) PMA in a mixture of equal volumes of acetone and ethanol;
b. Prepare 0.01% (w/v) PMA and 5% (w/v) test compound in a mixture of equal volumes of acetone and ethanol;
c. Divide 12 mice into 4 groups of 3 mice each;
d. Treat the first group of mice by applying 20 μL of a mixture of equal volumes of acetone and ethanol (vehicle) to the left ear using a micropipetter;
e. Treat the second group of mice by applying 20 μL of PMA solution to the left ear;
f. Treat the other two groups of mice by applying 20 μL of PMA/test compound solution to the left ear;
g. Wait 6 hours and euthanize the mice in a CO2 chamber;
h. Cut the ears and punch out circles of 6-mm diameter; and
i. Measure the weight of three appropriate ear punches in the same group together.

[3] = system: Mouse Macrophage RAW 264.7; assay: In Vitro Chemiluminescence Assay: inhibition of respiratory burst in PMA-stimulated mouse macrophage RAW 264.7; type: cell-based
Description: The cells are capable of phagocytosis and undergo an oxidative burst in response to appropriate signals. Agents that inhibit the activation of these cell in vitro are therefore inhibitors of critical steps in inflammatory processes.
Activation of macrophages and other phagocytic cell types initiates a cascade of actions that include increased oxygen consumption (respiratory burst) and production of oxygen radicals. These events can be measured m a variety of ways, including chemiluminescence based on the addition of luminol (see M. A. Trush et al, (1978), The generation of chemiluminescence by phagocytic cells, Methods in Enzymology 56:462-494). Because chemiluminescence is induced by the increased production of oxygen radicals that are thought to be important in intracellular killing of bacteria, chemiluminescence has long been used as an index of phagocytic cell activity. In addition, oxygen radical production is associated with inflammatory responses and may have adverse consequences in non-infectiousinflammation. For this reason, macrophage activation is of critical importance in studies of the inflammatory process. Agents that reduce macrophage activation are likely to have utility as anti-inflammatory agents.
1. Cell line: Raw 264.7 (ATCC TIB-71, attachment dependent).
2. Culture medium: Dulbecco's Modified Eagle's Medium (DMEM) with 10% Fetal Bovine Serum (FBS).
3. Standard protocol for culturing cell lines: in T-75 or T-150 flasks; 37° C.; 95% air, 5% CO2; 100% humidity;
a. Cell line is passaged when approximately 80% confluent; with trypsin (1 mg/mL) and ethylenediaminetetraacetic acid (EDTA) (1 mM in Ca-Mg free Hank's balanced salt solution); at a 1:4 to 1:5 split;
b. All procedures are performed aseptically in a class II biological safety cabinet using standard BL-2 containment procedures. In order to prevent genetic drift in stock cell lines, fresh cultures are prepared at approximately monthly intervals with cells thawed from liquid nitrogen storage.
a. After cell passage, count cells with a hemacytometer;
b. Adjust cell concentration to approximately 1,000,000 cells per mL;
c. Suspend cells in DMEM lacking phenol red and without FBS;
d. Pipette 1 mL of cell suspension into a standard luminometer cuvette (12×75 mm), commercially obtainable from Analytical Luminescence Laboratories, San Diego, Calif., USA;
e. Add luminol to final concentration of 0.2 mM;
f. Add test compound dissolved in phosphate buffered saline (PBS) for final concentration levels ranging from 0 to 10 μM;
g. Add 100 nanograms of phorbol myristate acetate (PMA): and
h. Wait 1 minute and read photo counts (i.e., luminescence) on a Monolight 2010 luminometer available from Analytical Luminescence Laboratories, San Diego.
Background--no test compound present; no PMA present;
Control--no test compound present;
Calculate: [formula] where L is luminescence. 6.

[4] = system: TNB-induced inflammation in rat colon; assay: In Vivo Assay--Rat Ulcerative Colitis Model (TNB-induced); set-up: species or system rat (male Sprague-Dawley); conditions: 150 mg/kg, rectal, once a day for 5 days; FIG. 2
Description: The model described in this section provides a tool for investigating the effect of compounds in colonic intimation. This model and the experimental methods are described in the following reference: Luck, Michael S. and Bass, Paul, (1993), "Effect of Epidermal Growth Factor on Experimental Colitis in the Rat," J. Pharmacol. Exp. Therap. 264:984-990. In this assay, inflammatory lesions in the rat colon are induced by the intracolonic administration of 2,4,6-trinitrobenzenesulfonic acid.
1. Rats: Male Sprague-Dawley, 185-195 g obtainable from Harlan Sprague Dawley, Indianapolis, Ind., USA;
a. Prepare 100 mg/mL 5-aminosalicylic acid (5-ASA), 50 mg/mL CPR-2015, and 150 mg/mL CPR-2015 in saline;
b. Divide 34 rats into 4 groups of 8 rats each and one group of two rats;
c. Leave the group with two rats completely untreated;
d. Treat the other four groups of rats with 200 μl of Saline, 500 μl of 100 mg/mL 5-ASA, 200 μl of 50 mg/mL CPR-2015, or 200 μl of 150 mg/mL CPR-2015. These treatments are administered rectally with an 8-cm catheter;
e. After one hour, treat the above four groups of rats rectally with 500 μl of 100 mg/mL 2,4,6-trinitrobenzenesulfonic acid (TNB) in 30% ethanol and 70% saline;
f. Repeat the treatments described in paragraph 2(d) once a day for a total of 5 days;
g. On the 6th day, euthanize the rates in a CO2 chamber; and
h. […]

Compound: CCCCCCCCCCCCCCCC(=O)Nc1ccc(OP(=O)([O-])OCC[N+](C)(C)C)c(C(C)=O)c1 [CPR-2015, (o-acetyl-p-N-hexadecanamido-phenyl)-O-phosphocholine]
- inhibition of carrageenan-induced edema in rat paw [1]: marked inhibition
- inhibition of PMA-induced inflammation in mouse ear [2]: completely inhibited
- inhibition at 0.1 µM ([3]; Mus musculus, RAW264.7, Concentration 0.1 µM, PMA-stimulated RAW 264.7, luminol chemiluminescence): 13%
- inhibition at 0.3 µM ([3]; Mus musculus, RAW264.7, Concentration 0.3 µM, PMA-stimulated RAW 264.7, luminol chemiluminescence): 63%
- inhibition at 1 µM ([3]; Mus musculus, RAW264.7, Concentration 1 µM, PMA-stimulated RAW 264.7, luminol chemiluminescence): 94%
- inhibition at 3 µM ([3]; Mus musculus, RAW264.7, Concentration 3 µM, PMA-stimulated RAW 264.7, luminol chemiluminescence): 97%
- inhibition at 10 µM ([3]; Mus musculus, RAW264.7, Concentration 10 µM, PMA-stimulated RAW 264.7, luminol chemiluminescence): 99%
- inhibition of PMA-induced macrophage activation ([3]; at concentrations above 0.3 μM): marked inhibition
- inhibition of TNB-induced inflammation in rat colon [4]: marked inhibition

Compound: CCCCCCCCCCCCCCCC(=O)Nc1ccc(O)c(C(C)=O)c1 [CPR-2014, 1-(5-hexadecanamido-2-hydroxy-phenyl)-ethanone]
- inhibition of carrageenan-induced edema in rat paw [1]: marked inhibition
- inhibition of PMA-induced inflammation in mouse ear [2]: partially inhibited
